Results on 12 molecules are retold here after patent publication US20020065309A1, “Novel Bicyclic and tricyclic pyrrolidine derivatives as GnRH antagonists” (priority 1999, published 2002).

By IC50 is commonly meant the concentration that inhibits the measured activity by half. The low end stands for inhibition by little substance, the high end for a need for much substance.

Each structure is given as a SMILES string.

In this test the target is T1, human GnRH receptor (Homo sapiens, UniProt P30968).
T1 construct: expressed in transfected cells; host or cells: COS-1 cells infected with recombinant adenovirus; membrane preparation
T1 sequence (P30968 1-328): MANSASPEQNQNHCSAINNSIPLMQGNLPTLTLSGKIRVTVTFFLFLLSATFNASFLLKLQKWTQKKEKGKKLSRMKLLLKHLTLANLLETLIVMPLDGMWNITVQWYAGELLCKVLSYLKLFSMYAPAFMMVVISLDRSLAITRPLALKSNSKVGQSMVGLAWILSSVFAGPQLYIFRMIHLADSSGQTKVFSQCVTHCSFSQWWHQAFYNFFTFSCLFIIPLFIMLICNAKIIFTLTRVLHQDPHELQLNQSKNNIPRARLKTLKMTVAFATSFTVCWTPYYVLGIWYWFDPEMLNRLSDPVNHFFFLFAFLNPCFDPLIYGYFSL
Nature of the test: GnRH radioligand binding assay. As to conditions: 125I-LHRH-D-Trp6 radioligand; COS-1 cell membranes containing human GnRH receptors; 2 h at 4 C. The procedure: COS-1 cells infected with a recombinant adenovirus directing the expression of the human GnRH receptor were harvested 48 hours after virus infection using cell dissociation buffer from Gibco-BRL and pelleted by centrifugation (5 min., 1100 rpm in RC3B, […]). The pellet was suspended in 20 ml ice cold binding buffer (25 mM Tris HCl, pH 7.4, 0.1% sodium azide, 0.1% BSA) and homogenized using polytron (Tempest Virtishear, Virtis).
The homogenate was centrifuged for 12 min. at 14,500 rpm in a RC5B and the supernatant discarded. The pellet was re-homogenized in 20 ml of binding buffer and centrifuged. The final pellet was resuspended in a small volume of binding buffer such that the final protein concentration was approximately 1.5 mg/ml (according to Pierce-BCA Protein kit). Aliquots of membrane preparation could then be stored frozen at −70 C without significant loss of binding activity for future use.
Samples were diluted in binding buffer (25 mM Tris pH 7.5, 10 MM MgCl2, 0.01% NaN3, 0.1% BSA) for the assay. The radioligand used was ^125I-LHRH-D-TrP6, approximately 50-70,000 counts/25 μl Non-specific binding was determined using LHRH-D-TrP6 at a final concentration of 1 µM. Addition of GnRH membranes to the assay was optimized to give a signal-to-noise ratio of 10:1.
Twenty-five μl sample (4× final concentration), 50 μl membranes and 25 μl radioligand were incubated in a V-bottom 96-well plate with shaking for 2 h at 4 C. The incubated mixture was then filtered onto a Whatman GF/B membrane pre-treated with 0.1% poly(ethylene imine) using a Packard Cell Harvester. The filter was dried for approximately 10 min. at 37 C. Forty μl Microscint 20 was added and the radioactivity remaining on the filter was counted using a Topcount γ-counter.
Binding inhibition was calculated from the measured values using a concentration series of each test compound in the conventional manner.
In turn, `CCOc1cc(CN2C[C@@H]3C[C@@H](c4ccc(N(C)C)c5ccccc45)N4C(=O)N(CCN5CCOCC5)C(=O)[C@@]34C2)ccc1O` (relative stereo) [AF20660] returned a half-maximal inhibitory concentration (IC50) of 800 ± 110 nM. Under `COc1ccc(CN2C[C@@H]3C[C@@H](c4ccc(N(C)C)c5ccccc45)N4C(=O)N(CCN5CCOCC5)C(=O)[C@@]34C2)cc1O` (relative stereo) [AF21276] stands 35 ± 6 nM; under `COc1cc(CN2C[C@@H]3C[C@@H](c4ccc(N(C)C)c5ccccc45)N4C(=O)N(CCN5CCOCC5)C(=O)[C@@]34C2)c(Br)c(Br)c1O` (relative stereo) [AF21278], 280 ± 170 nM; under `COc1ccc(CN2C[C@@H]3C[C@@H](c4ccc(OC)c5ccccc45)N4C(=O)N(CCN5CCOCC5)C(=O)[C@@]34C2)cc1O` (relative stereo) [AF21477], roughly 612 nM. Molecule `COc1ccc(CN2C[C@@H]3C[C@@H](c4ccc(N(C)C)cc4)N4C(=O)N(CCN5CCOCC5)C(=O)[C@@]34C2)cc1O` (relative stereo) [AF21479] had an IC50 of roughly 160 nM.

With `COc1cc(Br)c(CN2C[C@@H]3C[C@@H](c4ccc(N(C)C)c5ccccc45)N4C(=O)N(CCN5CCOCC5)C(=O)[C@@]34C2)cc1O` (relative stereo) [AF21813], the IC50 was roughly 80 nM. Regarding `COc1ccc(CN2C[C@@H]3C[C@@H](c4ccc(N(C)C)c5ccccc45)N4C(=O)N(CCc5ccncc5)C(=O)[C@@]34C2)cc1O` (relative stereo) [AF22053], the IC50 is roughly 385 nM. With `COc1ccc(CN2C[C@@H]3C[C@@H](c4ccc(N(C)C)c5ccccc45)N4C(=O)N(CCN5CCNCC5)C(=O)[C@@]34C2)cc1O` (relative stereo) [AF22352] the figure was roughly 1500 nM; with `COc1ccc(CN2C[C@H]3C[C@H](c4ccc(N)c5ccccc45)N4C(=O)N(CCN5CCOCC5)C(=O)[C@]34C2)cc1O` (relative stereo) [Compound 17, (trans)-5-[4-amino-1-naphthyl]-8-(3-hydroxy-4-methoxybenzyl)-2-(2-morpholin-4-ylethyl)hexahydro-1H-pyrrolo[3′,4′:2,3]pyrrolo[1,2-c]imidazole-1,3(2H)-dione], roughly 321 nM; with `COc1ccc(CN2C[C@H]3C[C@H](c4ccc(N(C)C)c5ccccc45)N4C(=O)N(CCN5CCOCC5)C(=O)[C@]34C2)cc1NC(C)=O` (relative stereo) [Compound 36, N-{5-[((trans)-5-[4-(dimethylamino)-1-naphthyl]-2-(2-morpholin-4-ylethyl)-1,3-dioxohexahydro-1H-pyrrolo[3′,4′:2,3]pyrrolo[1,2-c]imidazol-8(9H)-yl)methyl]-2-methoxyphenyl}acetamide], roughly 21 nM. With `COc1ccc(CN2C[C@H]3C[C@H](c4ccnc5ccccc45)N4C(=O)N(CCN5CCOCC5)C(=O)[C@]34C2)cc1O` (relative stereo) [Compound 73, (trans)-8-(3-hydroxy-4-methoxybenzyl)-2-(2-morpholin-4-ylethyl)-5-quinolin-4-ylhexahydro-1H-pyrrolo [3′, 4′:2,3]pyrrolo[1,2-c]imidazole-1,3(2H)-dione] the figure was roughly 1500 nM; with `O=C1N(CCN2CCOCC2)C(=O)[C@]23CNC[C@H]2C[C@H](c2cnc4ccccc4c2)N13` (relative stereo) [Compound 76, (trans)-2-(2-morpholin-4-ylethyl)-5-quinolin-3-ylhexahydro-1H-pyrrolo [3′,4′:2,3] pyrrolo [1,2-c]imidazole-1,3(2H)-dione], roughly 270 nM.
